The values that follow are results of earlier work, collected in patent US20090297625A1, “AGENT FOR TREATING EYE DISEASES” (OTKRYTOE AKTSIONERNOE OBSCHESTVO ZAVOD, priority 2006, published 2009).

The conditions of the data set: administration of lutein as an additive.

`CC1=C[C@H](O)CC(C)(C)[C@H]1/C=C/C(C)=C/C=C/C(C)=C/C=C/C=C(C)/C=C/C=C(C)/C=C/C1=C(C)C[C@@H](O)CC1(C)C` [lutein]: the “absorption and storage in the macula lutea” value was “well absorbed and stored in the macula lutea”.
